Data: patent US20110093959A1, “CRYPTOTIS PARVA SCREENING MODEL FOR ANTIEMETIC POTENTIAL” (priority 2008, published 2011)

Tested on: Fos
Assay: Fos expression in the dorsal vagal complex resulting from CIS-induced vomiting
Format: in vivo, Cryptotis parva
Settings: CIS 10 mg/kg i.p.; vs vehicle in place of CIS
Experimental: After the appropriate time period for acute or delayed phase vomiting, shrews were anesthetized with a lethal dose of pentobarbital (100 mg/kg) and perfused transcardially via blunted needle with a peristaltic pump. The shrew was perfused with ice cold 4% paraformaldehyde and 5% picric acid in pH 7.4, 0.1 M phosphate buffer (10 min). Brains were removed and stored in 30% sucrose in 0.1 M PB overnight, then embedded in blocks of 12% gelatin in 30% sucrose/PB. The blocks were postfixed for 3 hr in 2% paraformaldehyde/PB, then rinsed and immersed in 30% sucrose/PB until they sank (usually 1-2 hr). The brain block was cut sagittally on a freezing benchtop microtome (Leica) at 30 μm into 5 series, and stored in PB with 0.03% sodium azide.
Immunolabeling was accomplished by blocking a free-floating series with 10% normal horse serum (NHS) and 3% hydrogen peroxide in PB with 0.3% Tri-ton X-100 (TX) for 30 min. After rinsing in PB, tissue was put in sheep anti-Fos polyclonal antibody (Chemicon/Millipore, Temecula, Calif.; 1:600), with 5% NHS and 0.3% TX in PB, and incubated for about 42 hr at room temperature (RT) with gentle shaking. After rinsing in PB, the tissue was placed in biotinylated donkey anti-sheep IgG secondary antibody (Jackson Immunoresearch, West Grove, Pa.; 1:600) diluted in the same diluent described for the primary antibody, and the tissue incubated at RT with shaking for 75 min Tissue was then rinsed and incubated for 60 min in HRP-conjugated avidin-biotin complex (Vector Labs, Burlingame, Calif.; Vectastain kit diluted 1:2) in PB. Tissue was then rinsed twice in PB, then once in imidazole-acetate buffer (0.1 M, pH 7.4), then reacted for 6 min in 0.0006% hydrogen peroxide with 2% nickel ammonium sulfate-enhanced diaminobenzidine (DAB, 0.05% in 0.1 M imidazole-acetate buffer). All reagents for DAB processing were purchased from Sigma-Aldrich. […]

N.N.[Cl][Pt][Cl] [CIS, cis-platinum(II)diamine dichloride]
Fos-IR in the DVC after CIS-induced vomiting: numerous Fos-IR nuclei
